From patent US20110301199A1, “COMPOSITIONS AND METHODS FOR TREATING MYELODYSPLASTIC SYNDROME” (Telik, Inc., priority 2010, published 2011)

How the values were obtained:
[1] = test system: Low to Intermediate-1 Risk Myelodysplastic Syndrome; experiment: Clinical study of ezatiostat hydrochloride tablets in MDS patients: adverse events (safety); type: in vivo, human
Protocol: Eighty-seven patients were randomized and treated at 23 investigational sites. After initial dose ranging in 14 patients, two dose levels were selected for further study. Subsequently, 37 patients were treated at 3 grams daily for two weeks followed by a one week rest period, and 36 patients were treated at 2 grams daily for three weeks followed by a one week rest period. The data on these 73 patients was pooled for this preliminary analysis.
The safety data is based on all patients treated.

[2] = test system: Low to Intermediate-1 Risk Myelodysplastic Syndrome; experiment: Clinical study of ezatiostat hydrochloride tablets in IPSS low to intermediate-1 risk MDS patients: hematologic improvement and efficacy; type: in vivo, human; settings: for significant RBC transfusion reduction: five of 11 patients; for HI-E Response Rate (95% Confidence Interval): prior DMTI Yes, N 15
Protocol: Subsequently, 37 patients were treated at 3 grams daily for two weeks followed by a one week rest period, and 36 patients were treated at 2 grams daily for three weeks followed by a one week rest period.
The median age was 72 years, with a patient population distribution of IPSS low risk (23 patients, 32%) and intermediate-1 risk (50 patients, 68%).

[3] = 1 g b.i.d. 3 weeks on & 1 week off (N = 31)
[4] = 1 g b.i.d. 3 weeks on & 1 week off, 6 responders
[5] = 1.5 g b.i.d. 2 weeks on & 1 week off (N = 29)
[6] = 1.5 g b.i.d. 2 weeks on & 1 week off, 7 responders

## CCOC(=O)[C@@H](N)CCC(=O)N[C@@H](CSCc1ccccc1)C(=O)N[C@@H](C(=O)OCC)c1ccccc1 [Telintra, ethyl (2S)-2-amino-5-[[(2R)-3-benzylsulfanyl-1-[[(1R)-2-ethoxy-2-oxo-1-phenylethyl]amino]-1-oxopropan-2-yl]amino]-5-oxopentanoate]
[1]; all patients treated
  diarrhea, Grade 1 adverse event: 25%
  diarrhea, Grade 2 adverse event: 7%
  diarrhea, Grade 3 adverse event: 3%
  nausea, Grade 1 adverse event: 45%
  nausea, Grade 2 adverse event: 16%
  nausea, Grade 3 adverse event: 1%
  vomiting, Grade 1 adverse event: 30%
  vomiting, Grade 2 adverse event: 12%
  vomiting, Grade 3 adverse event: 2%
[1]; patients with prior DMTI treatment
  incidence of GI AEs with prior DMTI treatment: increased incidence
[2]; 1 g b.i.d. 3 weeks on & 1 week off
  Duration of HI-E Response, Median (95% CI): 46.1 (10.0-46.1) Weeks
[2]; [3]
  Time to HI-E Response, Max: 11.3 Weeks
  Time to HI-E Response, Mean: 8.9 (1.29) ^ Weeks
  Time to HI-E Response, Min: 8.0 Weeks
[2]; [4]
  Duration of HI-E Response, # Censored: 4 (66.7%)
  Duration of HI-E Response, # Event: 2 (33.3%)
[2]; 1.5 g b.i.d. 2 weeks on & 1 week off
  Duration of HI-E Response, Median (95% CI): 18.4 (3.1-51.0) Weeks
[2]; [5]
  Time to HI-E Response, Max: 10.0 Weeks
  Time to HI-E Response, Mean: 8.4 (0.72) ^ Weeks
  Time to HI-E Response, Min: 8.0 Weeks
[2]; [6]
  Duration of HI-E Response, # Censored: 2 (28.6%)
  Duration of HI-E Response, # Event: 5 (71.4%)
[2]; 4 of 38 RBC transfusion-dependent patients
  RBC transfusion independence: 11%
[2]; 11 of 38 RBC transfusion-dependent patients
  clinically significant RBC transfusion reductions (reduction of 4 U/8 weeks, IWG 2006): 29%
[2]; logistic regression analysis
  effect of prior Revlimid treatment on HI-E response: enhance
[2]; logistic regression analysis, p=0.023
  decrease in the odds for a HI-E response predicted by prior DMTI treatment: five-fold
[2]; no prior Revlimid, no prior DMTI
  significant RBC transfusion reduction: 45%
[2]; one patient
  complete remission continued following discontinuation of therapy: more than 12 months
[2]; prior Revlimid No
  HI-E Response Rate (95% Confidence Interval): 0.0% (0.0%-21.8%)
[2]; prior Revlimid Yes, listed as ezatiostat hydrochloride
  HI-E Response Rate (95% Confidence Interval): about 20%
[2]; prior Revlimid, no prior DMTI
  significant RBC transfusion reduction: 45%
[2]; prior Revlimid, no prior DMTI, three of 11 patients
  transfusion independence: 27%
